From US8227469B2, “Vanilloid receptor ligands and their use in treatments” (Amgen Inc., priority 2004, dated 2012)

SMILES | melting point
C[C@H](c1ccc(F)cc1)N1CCN(c2cc(Nc3ccc4cccnc4c3)ncn2)CC1 [Example 4, (6-{4-[(1R)-1-(4-Fluorophenyl)-ethyl]-piperazin-1-yl}-pyrimidin-4-yl)-quinolin-7-yl-amine] | 206 to 207 °C
C[C@@H](c1ccc(F)cc1)N1CCN(c2cc(Nc3ccc4cccnc4c3)ncn2)CC1 [Example 5, (6-{4-[(1S)-1-(4-Fluorophenyl)-ethyl]-piperazin-1-yl}-pyrimidin-4-yl)-quinolin-7-yl-amine] | 206 to 207 °C
CC(=O)Nc1nc2c(Oc3cc(C4=CCC(C(C)(C)C)CC4)ncn3)cccc2s1 (stereo not drawn) [Example 8, N-{4-[6-(4-tert-Butyl-cyclohex-1-enyl)-pyrimidin-4-yloxy]-benzothiazol-2-yl}-acetamide] | > 200 °C (dec.)
